Drawing on ChEMBL document CHEMBL3112549 (Bioorg Med Chem Lett, 2014), this text covers IC50 for 13 compounds.

Assay [1] deals with Mast/stem cell growth factor receptor Kit (Homo sapiens, UniProt P10721). Put plainly: Inhibition of c-KIT tyrosine kinase (unknown origin) after 30 mins by HTRF method. (Time-resolved FRET reads energy transfer from a long-lived donor to a nearby acceptor.)
Assay [2] concerns the target Vascular endothelial growth factor receptor 2 (Homo sapiens, UniProt P35968). In words: Inhibition of VEGFR-2 tyrosine kinase (unknown origin) after 30 mins by HTRF method.

Chain of Vascular endothelial growth factor receptor 2 (P35968 whole entry): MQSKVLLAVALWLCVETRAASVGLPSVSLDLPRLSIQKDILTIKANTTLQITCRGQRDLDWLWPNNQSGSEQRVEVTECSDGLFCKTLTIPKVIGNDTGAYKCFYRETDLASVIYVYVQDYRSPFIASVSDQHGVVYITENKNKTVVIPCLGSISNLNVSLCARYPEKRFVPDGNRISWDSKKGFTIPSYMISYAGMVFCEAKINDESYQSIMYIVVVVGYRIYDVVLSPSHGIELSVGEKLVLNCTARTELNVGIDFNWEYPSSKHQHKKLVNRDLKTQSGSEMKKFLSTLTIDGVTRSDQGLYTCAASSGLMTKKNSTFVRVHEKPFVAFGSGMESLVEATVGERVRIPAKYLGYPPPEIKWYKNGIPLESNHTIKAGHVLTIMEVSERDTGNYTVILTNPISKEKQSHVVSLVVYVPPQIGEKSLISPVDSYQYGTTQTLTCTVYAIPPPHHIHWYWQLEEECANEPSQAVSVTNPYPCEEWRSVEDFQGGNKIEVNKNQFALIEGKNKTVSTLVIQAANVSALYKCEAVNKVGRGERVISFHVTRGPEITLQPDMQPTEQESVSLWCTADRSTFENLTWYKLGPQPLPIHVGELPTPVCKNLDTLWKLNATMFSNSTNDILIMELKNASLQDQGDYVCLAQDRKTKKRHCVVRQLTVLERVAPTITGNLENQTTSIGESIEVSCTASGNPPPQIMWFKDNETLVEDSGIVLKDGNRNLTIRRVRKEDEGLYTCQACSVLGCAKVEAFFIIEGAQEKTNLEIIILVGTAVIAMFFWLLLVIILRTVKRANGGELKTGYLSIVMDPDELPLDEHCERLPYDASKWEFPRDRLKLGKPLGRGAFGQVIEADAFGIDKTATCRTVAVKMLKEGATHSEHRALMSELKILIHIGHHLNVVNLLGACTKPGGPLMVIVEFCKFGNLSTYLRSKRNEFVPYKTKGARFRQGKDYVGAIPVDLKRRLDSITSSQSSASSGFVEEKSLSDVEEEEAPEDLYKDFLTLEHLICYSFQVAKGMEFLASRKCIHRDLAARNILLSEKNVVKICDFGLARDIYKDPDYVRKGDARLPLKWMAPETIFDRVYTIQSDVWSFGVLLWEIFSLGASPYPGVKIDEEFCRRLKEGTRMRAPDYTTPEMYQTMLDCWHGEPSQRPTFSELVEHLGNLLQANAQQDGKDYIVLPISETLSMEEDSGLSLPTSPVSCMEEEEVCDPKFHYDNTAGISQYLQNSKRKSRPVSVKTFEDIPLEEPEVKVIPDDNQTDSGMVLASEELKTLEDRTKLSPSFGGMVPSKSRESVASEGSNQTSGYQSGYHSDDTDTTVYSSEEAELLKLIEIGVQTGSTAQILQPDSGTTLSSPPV
Chain of Mast/stem cell growth factor receptor Kit (P10721 whole entry): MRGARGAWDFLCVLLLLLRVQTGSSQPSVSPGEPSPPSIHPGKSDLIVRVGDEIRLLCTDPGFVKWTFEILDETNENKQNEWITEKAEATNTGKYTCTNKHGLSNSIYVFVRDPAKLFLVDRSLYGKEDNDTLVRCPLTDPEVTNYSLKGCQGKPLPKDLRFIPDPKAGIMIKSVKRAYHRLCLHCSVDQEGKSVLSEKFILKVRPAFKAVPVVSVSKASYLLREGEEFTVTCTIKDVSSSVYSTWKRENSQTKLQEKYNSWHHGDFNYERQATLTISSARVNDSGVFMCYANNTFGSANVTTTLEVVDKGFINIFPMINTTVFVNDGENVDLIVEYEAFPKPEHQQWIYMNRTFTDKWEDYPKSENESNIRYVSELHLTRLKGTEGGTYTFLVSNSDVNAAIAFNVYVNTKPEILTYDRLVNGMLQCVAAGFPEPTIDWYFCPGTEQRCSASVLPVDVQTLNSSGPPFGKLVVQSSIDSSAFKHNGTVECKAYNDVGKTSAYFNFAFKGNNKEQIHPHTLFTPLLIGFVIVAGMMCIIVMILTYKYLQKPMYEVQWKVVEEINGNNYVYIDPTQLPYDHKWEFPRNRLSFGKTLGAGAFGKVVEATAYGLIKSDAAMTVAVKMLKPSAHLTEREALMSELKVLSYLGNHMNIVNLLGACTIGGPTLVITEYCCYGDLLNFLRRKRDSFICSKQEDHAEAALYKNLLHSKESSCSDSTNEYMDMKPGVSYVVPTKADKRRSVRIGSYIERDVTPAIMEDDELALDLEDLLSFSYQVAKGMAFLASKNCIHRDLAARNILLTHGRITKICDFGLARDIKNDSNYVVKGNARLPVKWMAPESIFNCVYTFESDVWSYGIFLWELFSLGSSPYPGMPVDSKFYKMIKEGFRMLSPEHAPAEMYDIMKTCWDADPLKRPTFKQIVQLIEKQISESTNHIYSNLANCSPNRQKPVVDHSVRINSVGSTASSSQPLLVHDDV

Take `Cc1c2ccc(N(C)c3ccnc(Nc4cccc(F)c4)n3)cc2nn1C`: the half-inhibitory concentration (IC50) in assay [1] was 102 nM; in assay [2], 78 nM.
The corresponding values for `Cc1c2ccc(N(C)c3ccnc(Nc4cccc(Br)c4)n3)cc2nn1C` are 98 nM and 64 nM.
The corresponding values for `Cc1c2ccc(N(C)c3ccnc(Nc4cccc(Cl)c4)n3)cc2nn1C` are 80 nM and 25 nM.
The corresponding values for `COc1cccc(Nc2nccc(N(C)c3ccc4c(C)n(C)nc4c3)n2)c1` are 72 nM and 38 nM.
Regarding `Cc1cccc(Nc2nccc(N(C)c3ccc4c(C)n(C)nc4c3)n2)c1`, the figures for the IC50 in assay [1] and in assay [2] were 87 nM and 42 nM, respectively.
The corresponding values for `Cc1cc(C)cc(Nc2nccc(N(C)c3ccc4c(C)n(C)nc4c3)n2)c1` are 40 nM and 21 nM.
The corresponding values for `CSc1ccc(Nc2nccc(N(C)c3ccc4c(C)n(C)nc4c3)n2)cc1` are 71 nM and 51 nM.
The corresponding values for `Cc1c2ccc(N(C)c3ccnc(Nc4ccc(OC(F)(F)F)cc4)n3)cc2nn1C` are 89 nM and 72 nM.
Regarding `CN(c1ccc2cn(C)nc2c1)c1ccnc(Nc2cccc(F)c2)n1`, the IC50 in assay [1] worked out at 96 nM; in assay [2], 93 nM.
The corresponding values for `CN(c1ccc2cn(C)nc2c1)c1ccnc(Nc2cccc(Cl)c2)n1` are 72 nM and 72 nM.
On to `COc1cccc(Nc2nccc(N(C)c3ccc4cn(C)nc4c3)n2)c1`, for which the IC50 in assay [1] came to 77 nM; in assay [2] it was 108 nM.
In the case of `CN(c1ccc2cn(C)nc2c1)c1ccnc(Nc2ccc(OC(F)(F)F)cc2)n1`, the IC50 in assay [1] is 83 nM; in assay [2], 12 nM.
The corresponding values for `Cc1cc(C)cc(Nc2nccc(N(C)c3ccc4cn(C)nc4c3)n2)c1` are 61 nM and 28 nM.

The IC50 is the concentration at which inhibition is half-maximal.
